Assays:
[1] = system: Ba/F3-FGFR1-transfected cells; test: Ba/F3-FGFR1 (plus IL3) cellular proliferation assay, counterscreen with 10 ng/ml murine IL3; format: cell-based; settings: plus IL3 (10 ng/ml murine IL3, counterscreen); read-out: BAF3-FGFR1 (PLUS IL3) pIC50 (converted)
Method in brief: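 Proliferation read-out: resazurin-based Alamar Blue fluorescence (540/590 nm) after 4 h, following 24 h compound treatment of 20000 Ba/F3-FGFR1 cells per well in 10% FBS RPMI at 37° C. IL3 counterscreen used the same protocol plus 10 ng/ml murine IL3.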

[2] = target: T1, Ba/F3-FGFR1-transfected cells (Homo sapiens, UniProt P11362); test: Ba/F3-FGFR1 (minus IL3) cellular proliferation assay, Alamar Blue; format: cell-based
T1 construct: BAF3-FGFR1 (MIN IL3) pIC50; other: minus IL3
Method in brief: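 Read-out: resazurin reduction, fluorescence ex 540 nm/em 590 nm after 4 h Alamar Blue at 37 °C. Before that, FGFR1-transfected Ba/F3 cells (20000/well) sat with compound for 24 h in RPMI-1640/10% FBS/2 mM L-Gln.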

[3] = target: Ba/F3-FGFR4-transfected cells (Homo sapiens, UniProt P22455); test: Ba/F3-FGFR4 cellular proliferation assay, Alamar Blue; format: cell-based
Method in brief: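 Proliferation is measured by resazurin reduction: after 24 h compound treatment at 37 °C in RPMI-1640/10% FBS, cells get Alamar Blue for 4 h before RFU read (540/590 nm). Each well holds 20000 Ba/F3-FGFR4-transfected cells.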

FGFR4 (h) = FGFR4 (h) (Homo sapiens, UniProt P22455); test: FGFR4 (enzymatic assay), TR-FRET; format: biochemical; settings: FGFR 4 pIC50, enzymatic assay
KDR (h) = KDR (h) (Homo sapiens, UniProt P35968); test: KDR (VEGFR2) (enzymatic assay), TR-FRET; format: biochemical; settings: read-out: VEGFR 2 (KDR) pIC50 (converted)
Method in brief: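 TR-FRET readout (ex 340, em 620/655 nm) in RFU after EDTA stop with Eu-anti-phosphotyrosine and SA-XL665 for 60 min. The preceding 120-min room-temperature kinase step used 150 ng/ml KDR (h), 3 μM ATP, 500 nM biotinylated Flt3 peptide, MnCl2-containing HEPES buffer pH 7.5, 1% DMSO.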

[4] = target: T2, Ba/F3-FGFR3-transfected cells (Homo sapiens, UniProt P22607); test: Ba/F3-FGFR3 (minus IL3) cellular proliferation assay, Alamar Blue; format: cell-based
T2 construct: BAF3-FGFR3 (MIN IL3) pIC50; other: minus IL3
Method in brief: (§1)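 Read-out: resazurin-based Alamar Blue fluorescence (ex 540 nm, em 590 nm) after a 4 h dye incubation. FGFR3-transfected Ba/F3 cells, 20000 per well, are exposed to compound for 24 h at 37° C in RPMI-1640/10% FBS. Plus-IL3 counterscreen adds 10 ng/ml murine IL3.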

FGFR2 (h) = FGFR2 (h) (Homo sapiens, UniProt P21802); test: FGFR2 (enzymatic assay), TR-FRET; format: biochemical; settings: enzymatic assay; read-out: FGFR 2 pIC50 (converted)
Method in brief: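 At low ATP (0.4 μM), enzyme activity of human FGFR2 (150 ng/ml) toward biotinylated Flt3 substrate (500 nM) was followed with test compound present. Reactions ran in 50 mM HEPES pH 7.5, 6 mM MnCl2, 1 mM DTT, 0.1 mM Na3VO4, 0.01% Triton-X-100, 1% DMSO.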

FGFR3 (h) = FGFR3 (h) (Homo sapiens, UniProt P22607); test: FGFR3 (enzymatic assay), TR-FRET; format: biochemical; settings: read-out: FGFR 3 pIC50 (converted)
Description: Time-Resolved Fluorescence Resonance Energy Transfer (TR-FRET) signal (ex340 nm.

[5] = system: Ba/F3-FGFR3-transfected cells; test: Ba/F3-FGFR3 (plus IL3) cellular proliferation assay, counterscreen with 10 ng/ml murine IL3; format: cell-based; settings: plus IL3 (10 ng/ml murine IL3, counterscreen); read-out: BAF3-FGFR3 (PLUS IL3) pIC50 (converted)
Method in brief: as §1

FGFR1 (h) = FGFR1 (h) (Homo sapiens, UniProt P11362); test: FGFR1 (enzymatic assay), TR-FRET; format: biochemical; settings: read-out: FGFR 1 pIC50 (converted)
FGFR1 (h), sequence (P11362 22-822): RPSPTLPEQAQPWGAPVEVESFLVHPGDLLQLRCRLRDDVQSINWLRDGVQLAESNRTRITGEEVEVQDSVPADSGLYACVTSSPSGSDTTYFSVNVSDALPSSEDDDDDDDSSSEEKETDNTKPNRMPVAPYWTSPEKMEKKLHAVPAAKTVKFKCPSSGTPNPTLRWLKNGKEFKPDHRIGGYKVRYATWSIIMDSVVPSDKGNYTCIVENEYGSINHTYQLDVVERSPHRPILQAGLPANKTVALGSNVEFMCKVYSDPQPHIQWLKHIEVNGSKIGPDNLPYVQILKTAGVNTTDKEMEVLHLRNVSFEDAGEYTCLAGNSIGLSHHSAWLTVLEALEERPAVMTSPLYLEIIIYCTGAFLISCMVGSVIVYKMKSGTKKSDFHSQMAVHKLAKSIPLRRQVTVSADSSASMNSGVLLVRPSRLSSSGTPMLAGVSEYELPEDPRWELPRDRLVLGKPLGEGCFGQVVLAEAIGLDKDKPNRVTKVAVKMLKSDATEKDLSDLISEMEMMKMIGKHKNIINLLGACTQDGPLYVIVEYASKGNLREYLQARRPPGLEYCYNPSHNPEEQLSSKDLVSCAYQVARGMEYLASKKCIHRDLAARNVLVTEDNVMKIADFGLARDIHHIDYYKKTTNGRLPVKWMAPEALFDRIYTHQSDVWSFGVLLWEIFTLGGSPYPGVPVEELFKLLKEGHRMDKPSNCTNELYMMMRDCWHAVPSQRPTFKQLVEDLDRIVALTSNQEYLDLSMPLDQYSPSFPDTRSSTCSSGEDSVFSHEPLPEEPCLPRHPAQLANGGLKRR

T1 sequence (P11362 whole entry, change not shown): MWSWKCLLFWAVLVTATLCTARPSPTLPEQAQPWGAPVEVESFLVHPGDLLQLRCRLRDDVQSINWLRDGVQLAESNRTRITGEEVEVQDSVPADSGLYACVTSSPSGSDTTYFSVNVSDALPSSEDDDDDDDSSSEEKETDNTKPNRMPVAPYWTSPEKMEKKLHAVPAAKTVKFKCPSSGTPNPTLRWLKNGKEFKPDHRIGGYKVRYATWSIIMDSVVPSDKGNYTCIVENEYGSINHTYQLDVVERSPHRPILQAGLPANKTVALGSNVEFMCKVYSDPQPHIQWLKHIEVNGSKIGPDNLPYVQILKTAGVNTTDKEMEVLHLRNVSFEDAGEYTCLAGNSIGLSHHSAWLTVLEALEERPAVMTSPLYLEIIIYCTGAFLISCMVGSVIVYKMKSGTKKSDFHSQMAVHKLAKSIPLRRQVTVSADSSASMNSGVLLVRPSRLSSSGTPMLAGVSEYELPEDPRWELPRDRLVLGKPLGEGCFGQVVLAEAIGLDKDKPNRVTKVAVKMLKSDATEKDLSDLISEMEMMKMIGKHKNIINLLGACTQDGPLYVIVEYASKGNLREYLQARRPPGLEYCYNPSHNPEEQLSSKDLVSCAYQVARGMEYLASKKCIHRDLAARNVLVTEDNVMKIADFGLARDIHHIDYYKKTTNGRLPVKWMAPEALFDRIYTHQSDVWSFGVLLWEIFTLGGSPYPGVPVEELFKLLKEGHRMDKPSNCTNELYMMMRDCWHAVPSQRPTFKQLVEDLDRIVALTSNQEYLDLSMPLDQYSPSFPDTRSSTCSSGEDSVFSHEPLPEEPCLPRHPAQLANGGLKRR
Ba/F3-FGFR4-transfected cells, sequence (P22455 whole entry, change not shown): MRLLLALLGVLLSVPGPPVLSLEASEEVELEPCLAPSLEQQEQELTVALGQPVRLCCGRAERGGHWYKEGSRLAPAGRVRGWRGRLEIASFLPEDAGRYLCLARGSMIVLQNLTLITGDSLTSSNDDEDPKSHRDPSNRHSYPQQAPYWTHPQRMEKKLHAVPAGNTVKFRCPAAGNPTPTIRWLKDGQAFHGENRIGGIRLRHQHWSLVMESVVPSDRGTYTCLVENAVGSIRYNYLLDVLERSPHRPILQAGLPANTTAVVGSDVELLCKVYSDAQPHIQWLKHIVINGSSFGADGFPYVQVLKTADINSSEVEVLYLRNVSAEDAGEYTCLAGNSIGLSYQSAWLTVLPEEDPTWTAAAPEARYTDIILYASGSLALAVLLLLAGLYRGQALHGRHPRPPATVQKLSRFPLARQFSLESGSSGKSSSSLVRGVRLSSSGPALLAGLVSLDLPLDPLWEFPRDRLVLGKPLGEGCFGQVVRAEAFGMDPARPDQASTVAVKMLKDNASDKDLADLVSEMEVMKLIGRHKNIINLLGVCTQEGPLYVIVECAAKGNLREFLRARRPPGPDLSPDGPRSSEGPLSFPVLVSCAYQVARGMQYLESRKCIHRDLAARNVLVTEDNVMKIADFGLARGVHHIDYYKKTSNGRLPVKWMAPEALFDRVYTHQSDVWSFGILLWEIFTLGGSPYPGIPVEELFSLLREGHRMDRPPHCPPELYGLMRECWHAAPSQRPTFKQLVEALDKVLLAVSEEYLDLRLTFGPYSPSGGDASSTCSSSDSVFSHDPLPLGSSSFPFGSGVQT
FGFR4 (h), sequence (P22455 22-802): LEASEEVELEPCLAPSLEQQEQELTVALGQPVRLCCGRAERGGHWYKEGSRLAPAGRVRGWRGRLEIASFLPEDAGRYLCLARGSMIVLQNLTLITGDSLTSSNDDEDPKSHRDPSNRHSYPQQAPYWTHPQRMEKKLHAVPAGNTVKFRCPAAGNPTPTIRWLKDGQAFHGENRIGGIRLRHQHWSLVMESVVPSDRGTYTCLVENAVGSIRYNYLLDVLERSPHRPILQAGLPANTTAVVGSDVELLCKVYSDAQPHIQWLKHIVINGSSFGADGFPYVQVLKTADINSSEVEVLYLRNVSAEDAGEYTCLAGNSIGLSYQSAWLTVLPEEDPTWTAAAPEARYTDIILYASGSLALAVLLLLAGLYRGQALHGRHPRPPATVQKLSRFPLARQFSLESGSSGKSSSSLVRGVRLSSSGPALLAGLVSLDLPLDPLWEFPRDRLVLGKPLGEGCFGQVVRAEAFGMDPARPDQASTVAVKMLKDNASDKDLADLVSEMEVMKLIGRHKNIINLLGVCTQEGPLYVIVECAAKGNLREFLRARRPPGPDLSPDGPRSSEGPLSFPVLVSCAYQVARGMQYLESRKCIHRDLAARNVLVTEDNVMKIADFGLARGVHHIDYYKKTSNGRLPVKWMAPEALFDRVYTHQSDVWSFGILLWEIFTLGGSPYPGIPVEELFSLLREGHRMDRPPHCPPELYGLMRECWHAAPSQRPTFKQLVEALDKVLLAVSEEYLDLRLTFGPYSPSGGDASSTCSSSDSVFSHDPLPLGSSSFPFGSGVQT
FGFR3 (h), sequence (P22607 23-806): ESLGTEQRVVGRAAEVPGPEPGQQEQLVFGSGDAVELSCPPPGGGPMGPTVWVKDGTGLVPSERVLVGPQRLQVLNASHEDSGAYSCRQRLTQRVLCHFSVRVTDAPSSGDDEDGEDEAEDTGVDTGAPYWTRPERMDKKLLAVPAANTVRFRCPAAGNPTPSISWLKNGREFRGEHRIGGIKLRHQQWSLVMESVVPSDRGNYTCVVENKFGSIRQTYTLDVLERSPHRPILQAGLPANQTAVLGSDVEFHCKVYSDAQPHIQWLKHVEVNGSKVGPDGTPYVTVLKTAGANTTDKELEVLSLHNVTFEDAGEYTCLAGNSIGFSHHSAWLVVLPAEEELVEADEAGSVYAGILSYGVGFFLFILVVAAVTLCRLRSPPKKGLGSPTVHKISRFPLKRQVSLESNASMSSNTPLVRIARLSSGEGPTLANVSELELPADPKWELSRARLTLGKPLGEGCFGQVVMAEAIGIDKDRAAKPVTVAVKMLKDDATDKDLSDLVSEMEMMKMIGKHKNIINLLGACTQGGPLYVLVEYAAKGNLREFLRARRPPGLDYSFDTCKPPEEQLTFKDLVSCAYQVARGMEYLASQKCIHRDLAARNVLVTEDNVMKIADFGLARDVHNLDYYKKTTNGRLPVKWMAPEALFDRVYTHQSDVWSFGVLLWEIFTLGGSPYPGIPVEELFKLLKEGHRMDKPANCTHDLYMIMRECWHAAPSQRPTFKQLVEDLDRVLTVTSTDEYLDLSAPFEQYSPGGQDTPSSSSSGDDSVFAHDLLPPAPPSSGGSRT
T2 sequence (P22607 whole entry, change not shown): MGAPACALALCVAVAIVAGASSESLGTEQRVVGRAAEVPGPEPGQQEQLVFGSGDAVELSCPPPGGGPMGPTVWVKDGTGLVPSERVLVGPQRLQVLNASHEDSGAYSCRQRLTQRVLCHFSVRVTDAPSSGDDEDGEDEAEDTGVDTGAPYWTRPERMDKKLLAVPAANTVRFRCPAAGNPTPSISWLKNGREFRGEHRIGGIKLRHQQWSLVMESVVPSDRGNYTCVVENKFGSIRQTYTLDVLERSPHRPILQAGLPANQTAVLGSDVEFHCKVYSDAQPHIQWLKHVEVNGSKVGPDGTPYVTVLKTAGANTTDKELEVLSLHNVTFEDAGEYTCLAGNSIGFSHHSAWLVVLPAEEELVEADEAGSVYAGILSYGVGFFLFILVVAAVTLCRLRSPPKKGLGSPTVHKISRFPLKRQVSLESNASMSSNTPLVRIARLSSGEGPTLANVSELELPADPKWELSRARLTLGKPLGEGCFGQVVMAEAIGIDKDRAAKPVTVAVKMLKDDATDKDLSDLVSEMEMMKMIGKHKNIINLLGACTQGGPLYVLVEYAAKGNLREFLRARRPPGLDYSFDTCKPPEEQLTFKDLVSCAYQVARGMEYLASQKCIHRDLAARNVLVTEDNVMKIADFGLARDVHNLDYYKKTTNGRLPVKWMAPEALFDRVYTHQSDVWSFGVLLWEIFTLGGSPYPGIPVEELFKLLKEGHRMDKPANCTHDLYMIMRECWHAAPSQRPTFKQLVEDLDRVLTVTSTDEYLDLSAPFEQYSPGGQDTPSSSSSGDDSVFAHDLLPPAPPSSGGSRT

SMILES	IC50 [1] [nM]	BAF3-FGFR1 (MIN IL3) pIC50 [2]	BAF3-FGFR4 pIC50 [3]	IC50 (FGFR4 (h)) [nM]	IC50 (KDR (h)) [nM]	BAF3-FGFR3 (MIN IL3) pIC50 [4]	IC50 (FGFR2 (h)) [nM]	IC50 (FGFR3 (h)) [nM]	IC50 [5] [nM]	IC50 (FGFR1 (h)) [nM]
COc1cc(OC)c(F)c(N(Cc2ncc[nH]2)c2ccc3ncc(-c4cn[nH]c4)nc3n2)c1 [Compound 190]	> 10000	8.19	8.08	1.12	7.94	~8.15	1.29	1.23	> 10000	0.617
COc1cc(OC)c(F)c(N(Cc2ncc[nH]2)c2ccc3ncc(-c4cccnc4)nc3n2)c1 [Compound 190a]	> 10000	7.94	7.11	2.95	28.8	7.72	2.04	2	> 10000	1.02
COc1cc(OC)c(F)c(N(CC2CCC(=O)N2CCO)c2ccc3ncc(-c4cnn(C)c4)nc3n2)c1 (stereo not shown) [Compound 194]	> 10000	6.30	5.50	44.7	126	6.16	12	8.51	> 10000	11.2
COc1cc(OC)c(F)c(N(Cc2cnn(C)c2)c2ccc3ncc(-c4cnn(C)c4)nc3n2)c1 [Compound 195]	> 10000	8.08	7.33	0.871	11.5	8.09	2.04	0.871	> 10000	0.589
COc1cc(/N=c2\ccc3ncc(-c4cnn(C)c4)nc3n2Cc2cnn(C)c2)c(F)c(OC)c1 [Compound 196]	> 10000	8.95	~8.62	~0.891	3.98	~8.66	2.14	0.912	> 10000	0.407
COc1cc(OC)cc(N(Cc2nn[nH]n2)c2ccc3ncc(-c4cnn(C)c4)nc3n2)c1 [Compound 197]	> 10000	<5	<5	34.7	145	<5	11.2	14.5	> 10000	22.4
COc1cc(OC)cc(N(Cc2ncc[nH]2)c2ccc3ncc(-c4ccn(C)c4)nc3n2)c1 [Compound 198]	> 10000	8.48	8.05	0.661	4.57	~8.15	1.07	0.646	> 10000	0.309
COc1cc(OC)c(F)c(N(Cc2ncc[nH]2)c2ccc3ncc(-c4ccccc4)nc3n2)c1 [Compound 200]	> 10000	8.37	7.33	1.48	~9.55	~8.13	1.7	1.45	> 10000	0.537
COc1cc(OC)cc(N(Cc2ncc[nH]2)c2ccc3ncc(-c4ccncc4)nc3n2)c1 [Compound 202]	> 10000	7.47	6.81	2.82	61.7	~7.67	1.74	1.62	> 10000	1.12
COc1cc(OC)cc(N(Cc2nncn2CCO)c2ccc3ncc(-c4cnn(C)c4)nc3n2)c1 [Compound 204]	> 10000	6.15	5.49	60.3	302	6.09	11	15.1	> 10000	11.2
